US20120071539A1, “COMPOUNDS AND METHODS FOR MODULATING THE SILENCING OF A POLYNUCLEOTIDE OF INTEREST” (Emory University, priority 2006, published 2012)
Where a name gives a salt, the structure may show the parent alone.

Columns and labels:
[1] = test system: siRNA-mediated mRNA degradation; test: cell-based reporter screen: human 293 cells stably expressing GFP plus siRNA hairpin against GFP; details: for Modulation Effect (inhibit or enhance siRNA-mediated mRNA degradation): Table 1
Description: FIG. 2 discloses one embodiment of the cell-based reporter system of the invention. In this example, a human 293-cell line stably expressing a reporter gene, GFP, was used. This cell line was further transfected with a construct that expresses siRNA hairpin against GFP, which can decrease the level of GFP expression. Individual clones were isolated with greatly (although not completely) reduced GFP expression.
Using the above-identified clones, a screen was performed using The Spectrum Collection (MicroSource Discovery Systems, Inc., Gaylordsville, Conn., United States of America), which contains 2000 biologically active and structurally diverse compounds from libraries of known drugs, experimental bioactives, and pure natural products. For example, in one embodiment, a pilot screen of this library identified one inhibitor and one enhancer of siRNA-mediated mRNA degradation.
To identify the chemical compounds that modulate the siRNA and miRNA pathway, a screening strategy was used. A human 293-cell line stably expressing a reporter gene, GFP, was used. This cell line was further transfected with a construct that expresses siRNA hairpin against GFP, which could knock down the expression of GFP. […] Using these clones, a screen was performed using The Spectrum Collection, which contains 2000 biologically active and structurally diverse compounds from libraries of known drugs, experimental bioactives, and pure natural products.
Human 293 cells stably expressing a reporter gene, GFP, were further transfected with a construct that expresses an siRNA hairpin against GFP, which results in the knock-down of the expression of GFP. Transfected cells containing the siRNA suppressed GPF expression were split and then treated with an effective amount of enoxacin (FIG. 4, second panel) and were grown for a period of 24-48 hours.

[2] = test system: Clone#3, 293-EGFP-siGFP cells; test: plate-reader chemical library screen, GFP signal in Clone#3 cells; type: cell-based, human; details: for Clone#3, 293-EGFP-siGFP cells GFP signal intensity with Drug alone: plate reader
Source text: Further, in some embodiments, additional screens using the same library can be performed to identify other modulators of the siRNA and the miRNA pathways. In some embodiments, instead of examining the GFP signal visually under a microscope, the GFP signal can be quantified using an automatic plate reader. In such embodiments, two additional rounds of screening can be performed. In the first round of screening, the clones can be treated with compounds from a library, e.g., The Spectrum Collection, alone and the GFP level can be quantified after a period of time, e.g., 48 hours. In the second round of screening, the clones can be treated with compounds from a library, e.g., The Spectrum Collection, in the presence of 50 μM RNAi-E, i.e., enoxacin. This assay enables compounds that can modulate the activity of RNAi-E to be identified.
(§1) The presently disclosed chemical library also was screened using a plate reader to quantify the GFP signal intensity. The following screens were conducted: (1) repeating chemical screen using plate reader to quantify the GFP signal (50 mM each drug); (2) treating cells with 50 mM RNAi-I (30 mM each additional drug); and treating cells with […] (30 mM each additional drug).
(§2) For each screen, two types of cells were used: Clone#3 and EGFP. Clone#3 cells are 293-EGFP-siGFP and could be used to identify the modulators of the RNAi pathway. EGFP cells are 293-EGFP only and were used as a control to eliminate the compounds that could kill the cells or interfere GFP signals that are not related to RNAi pathway. The results for each screen are summarized in Table 2 and Table 3, respectively.
(§3) In these three screens, compounds were identified that could either enhance or inhibit RNAi activity in Clone#3, but had no effect on EGFP cells, which would indicate that these compounds might specifically work on RNAi pathway. The modulation of RNAi activity by these compounds was calculated as the percentage of GFP signal to Clone#3 control cells.

EGFP, 293-EGFP cells = test: plate-reader chemical library screen, GFP signal in control EGFP cells; type: cell-based, human; details: for EGFP, 293-EGFP cells With RNAi-E / EGFP, 293-EGFP cells Drug alone: GFP signal
Description: as §1, §2, §3

tumor cell models = details: cited from earlier work
[3] = test system: shRNA against Luciferase mRNA; test: GL-3 luciferase reporter in cells expressing shRNA against luciferase; type: cell-based; details: FIG. 5
Source text: In this example, a luciferase reporter construct GL-3 was transfected into the cells expressing shRNA against Luciferase mRNA.

[4] = 50 mM RNAi-E, 30 mM each additional drug
[5] = 50 mM RNAi-E, 30 mM each additional drug, values given as decimals
[6] = 50 mM each drug, values given as decimals

Compound | Modulation Effect (inhibit or enhance siRNA-mediated mRNA degradation) [1] | Clone#3, 293-EGFP-siGFP cells GFP signal intensity with Drug and RNAi-E [2, 4] | Clone#3, 293-EGFP-siGFP cells GFP signal intensity with Drug alone ([2]; 50 mM each drug) | Effect ([2]; Table 2) | Effect ([2]; as listed in Table 3) | EGFP, 293-EGFP cells With RNAi-E (EGFP, 293-EGFP cells; [4]) | EGFP, 293-EGFP cells Drug alone (EGFP, 293-EGFP cells; 50 mM each drug) | also measured
C=C1C2CCC3(C)C(c4ccoc4)OC(=O)CC13OC1CC(O)C(C)(C)C(CC(=O)OC)C12C (stereo not drawn) [3-alpha-hydroxy-3-deoxyangolensic acid methyl ester] | Enhancer | 10902446 | 10997867 | Enhancer | Enhancer | 118263232 | 129330172 | –
CC(=O)O[C@@H]1C[C@H]2C(C)(C)[C@@H](O)CC[C@]2(C)[C@H]2CC[C@]3(C)C(=CC(=O)O[C@H]3c3ccoc3)[C@@]21C [3-beta-Hyroxydeoxo-dihydrodeoxygedunin, 3-beta-hydroxydeoxodihydrodeoxygedunin] | Enhancer | 13998738 | 17430963 | Enhancer | Enhancer | 186574276 | 213530556 | –
NC(=S)NN=Cc1ccc(O)cn1 [5-HP, 5-hydroxypyridine-2-carboxaldehyde thiosemicarbazone] | – | – | – | – | – | – | – | anti-proliferative activity (tumor cell models): anti-proliferative activity
CC(C)C[C@H]1C(=O)N2CCC[C@H]2[C@]2(O)O[C@](NC(=O)[C@@H]3C=C4c5cccc6[nH]c(Br)c(c56)C[C@H]4N(C)C3)(C(C)C)C(=O)N12 [Bromocriptine Mesylate] | – | 10893798 | 7607590 | – | – | 136409552 | 132392840 | –
C=C[C@@]1(C)CC(=O)[C@]2(O)[C@@]3(C)[C@@H](O)CCC(C)(C)[C@@H]3[C@H](O)[C@H](OC(C)=O)[C@@]2(C)O1 [Colforsin] | Inhibitor | – | – | Inhibitor | Inhibitor | – | – | –
CC(=O)N(O)CCCCCNC(=O)CCC(=O)N(O)CCCCCNC(=O)CCC(=O)N(O)CCCCCN [Deferoxamine Mesylate] | – | 12987131 | 15874023.8 | – | – | 194519648 | 194929488 | –
Cc1cc(=O)c2c(O)c3c(cc2o1)OCC(C)CC3 (stereo not drawn) [Dihydroptaeroxylin] | Enhancer | 17140237.8 | 26383349 | Enhancer | Enhancer | 194786588 | 215783848 | Clone#3, 293-EGFP-siGFP cells % GFP signal intensity with drug + RNAi-E/Control (no drug) [2, 5]: 59.4446%; Clone#3 293-EGFP-siGFP cells % GFP signal intensity with drug alone/Control (no drug) [2, 6]: 91.5009%; EGFP, 293-EGFP cells Control % (With RNAi-E) (EGFP, 293-EGFP cells; [5]): 95.4836%; EGFP, 293-EGFP cells Control % (Drug alone) (EGFP, 293-EGFP cells; [6]): 105.776%
O=C(O)CCC(=O)c1ccc(-c2ccccc2)cc1 [Fenbufen] | Enhancer | 17801864.5 | 26499027 | Enhancer | Enhancer | 191729340 | 204633204 | –
CC(=O)O[C@H]1C[C@@]2(C)[C@@H](C[C@@H](O)[C@H]3[C@@]4(C)CC[C@@H](O)[C@@H](C)[C@@H]4CC[C@@]32C)/C1=C(\CCC=C(C)C)C(=O)O [Fusidic Acid] | Enhancer | 18581363.5 | 27803206.5 | Enhancer | Enhancer | 192354884 | 229560272 | –
O=C1CC[C@]23/C=C/C(=O)NCCCCNCCCNC(=O)/C=C/c4ccc(c2c4)O[C@@H]3C1 [Lunarine] | Enhancer | 11171512 | 9353700 | Enhancer | Enhancer | 130354040 | 131010562 | –
COc1cc2c(cc1OC)C(=O)OC2 [Metameconine] | Inhibitor | – | – | Inhibitor | Inhibitor | – | – | –
O=C(NCCN(CCNC(=O)c1cc(S(=O)(=O)O)c2cccnc2c1O)CCNC(=O)c1cc(S(=O)(=O)O)c2cccnc2c1O)c1cc(S(=O)(=O)O)c2cccnc2c1O [OTX, O-trensox] | – | – | – | – | – | – | – | anti-proliferative activity (tumor cell models): anti-proliferative activity
Cc1ncc(CO)c(C=NNC(=O)c2ccncc2)c1O [P1H, pyridoxal isonicotinoyl hydrazone] | – | – | – | – | – | – | – | anti-proliferative activity (tumor cell models): anti-proliferative activity
Nc1nc2[nH]cnc2c(=S)[nH]1 [Thioguanine] | Enhancer | 9228044.75 | 11903224.8 | Enhancer | Enhancer | 193528220 | 181033260 | –
NC(=S)NN=Cc1ncccc1N [Triapine, 3-aminopyridine-2-carboxaldehyde thiosemicarbazone] | – | – | – | – | – | – | – | activity against tumor cell models (tumor cell models): has activity against a variety of tumor cell models; anti-proliferative activity (tumor cell models): anti-proliferative activity
Cc1ccc(/C(=C\CN2CCCC2)c2ccccn2)cc1 [Triprolidine Hydrochloride] | – | 19639902.5 | 26791778.5 | – | – | 202110668 | 202102776 | –
O=C(O)c1cn(C2CC2)c2cc(N3CCNCC3)c(F)cc2c1=O [ciprofloxacin] | – | – | – | – | – | – | – | knock-down efficiency of shRNA against luciferase mRNA [3]: increased the knock-down efficiency; siRNA-mediated mRNA degradation [3]: enhance siRNA-mediated mRNA degradation
CC(=O)N(O)CCCCCNC(=O)CCC(=O)N(O)CCCCCNC(=O)CCC(=O)N(O)CCCCCN [desferrioxamine] | – | – | – | – | – | – | – | anti-proliferative activity (tumor cell models): anti-proliferative activity; sensitivity of aggressive tumors to Fe chelation therapy (tumor cell models; neuroblastoma (NB) and leukemia, in vitro, in vivo and clinical trials): sensitive
COc1cc(C(=O)NCc2ccc(OCCN(C)C)cc2)cc(OC)c1OC [trimethobenzamide] | – | – | – | – | – | – | – | siRNA-mediated mRNA degradation and gene knock-down ([1]; pilot screen of The Spectrum Collection, FIG. 3, FIG. 4): inhibit siRNA-mediated mRNA degradation and gene knock-down
